In the experiment the test system is L1210 leukemia ip in BDF1 mice, survival T/C. In words: NCI In Vivo Anticancer Drug Screen. Data for tumor model L1210 Leukemia (intraperitoneal) in B6D2F1 (BDF1) mice. Conditions: endpoint: mean survival time, higher = longer survival. In a few lines: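 Survival endpoint. Drug-treated group vs vehicle group, expressed as T divided by C. Tumor passaged by transplantation.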

Setting [1] is: dose: 50.0 mg/kg/injection, schedule: Q01DX009 (ip), vehicle: Klucel (hydroxypropylcellulose) (HPC).
The mark [2] stands for this setting: dose: 100.0 mg/kg/injection, schedule: Q01DX009 (ip), vehicle: Klucel (hydroxypropylcellulose) (HPC).
Where [3] appears, read: dose: 100.0 mg/kg/injection, schedule: Q04DX003 (ip), vehicle: Klucel (hydroxypropylcellulose) (HPC).
[4] abbreviates: dose: 200.0 mg/kg/injection, schedule: Q04DX003 (ip), vehicle: Klucel (hydroxypropylcellulose) (HPC).
The mark [5] stands for this setting: dose: 50.0 mg/kg/injection, schedule: Q01DX001 (ip), vehicle: carboxymethylcellulose (CMC).
The mark [6] stands for this setting: dose: 100.0 mg/kg/injection, schedule: Q01DX001 (ip), vehicle: carboxymethylcellulose (CMC).
[7] abbreviates: dose: 200.0 mg/kg/injection, schedule: Q01DX001 (ip), vehicle: carboxymethylcellulose (CMC).
[8] abbreviates: dose: 400.0 mg/kg/injection, schedule: Q01DX001 (ip), vehicle: carboxymethylcellulose (CMC).
Setting [9] is: dose: 100.0 mg/kg/injection, schedule: Q04DX003 (ip), vehicle: saline with Tween-80.
Where [10] appears, read: dose: 200.0 mg/kg/injection, schedule: Q04DX003 (ip), vehicle: saline with Tween-80.
[11] abbreviates: dose: 400.0 mg/kg/injection, schedule: Q04DX003 (ip), vehicle: saline with Tween-80.
[12] abbreviates: dose: 400.0 mg/kg/injection, schedule: Q04DX003 (ip), vehicle: Klucel (hydroxypropylcellulose) (HPC).
[13] abbreviates: dose: 100.0 mg/kg/injection, schedule: Q04DX003 (ip), vehicle: saline.
Setting [14] is: dose: 200.0 mg/kg/injection, schedule: Q04DX003 (ip), vehicle: saline.
[15] abbreviates: dose: 100.0 mg/kg/injection, schedule: Q01DX009 (ip), vehicle: saline with Tween-80.
[16] abbreviates: dose: 200.0 mg/kg/injection, schedule: Q01DX009 (ip), vehicle: saline with Tween-80.
[17] abbreviates: dose: 200.0 mg/kg/injection, schedule: Q01DX009 (ip), vehicle: Klucel (hydroxypropylcellulose) (HPC).
Setting [18] is: dose: 100.0 mg/kg/injection, schedule: Q04DX002 (ip), vehicle: Klucel (hydroxypropylcellulose) (HPC).
Setting [19] is: dose: 200.0 mg/kg/injection, schedule: Q04DX002 (ip), vehicle: Klucel (hydroxypropylcellulose) (HPC).
The mark [20] stands for this setting: dose: 400.0 mg/kg/injection, schedule: Q04DX002 (ip), vehicle: Klucel (hydroxypropylcellulose) (HPC).
Where [21] appears, read: dose: 400.0 mg/kg/injection, schedule: Q01DX009 (ip), vehicle: Klucel (hydroxypropylcellulose) (HPC).

“And” between values parts separate entries of the source, which are not always exact repeats. Equal entries are not always repeated. Inconclusive results and toxic doses are left out.

On to `CSc1nccc(=O)[nH]1`, for which the T/C under setting [1] is 100 % of control, the T/C under setting [2] was 95 % of control, the T/C under setting [3] was 102 % of control and the T/C under setting [4] is 96 % of control.
`CC(=O)Oc1ccc(OC(C)=O)c2c1C(=O)c1ccccc1C2=O`: the T/C under setting [5] is 104 % of control, the T/C under setting [6] is 110 % of control, the T/C under setting [7] was 102 % of control and the T/C under setting [8] is 110 % of control.
As for `Cc1ccc(NC(=S)Nc2cccc(C(F)(F)F)c2)cc1C`, the T/C is 101 % of control (dose: 87.5 mg/kg/injection, schedule: Q01DX009 (ip), vehicle: Klucel (hydroxypropylcellulose) (HPC)); 98 % of control (dose: 175.0 mg/kg/injection, schedule: Q01DX009 (ip), vehicle: Klucel (hydroxypropylcellulose) (HPC)); 102 % of control (dose: 350.0 mg/kg/injection, schedule: Q01DX009 (ip), vehicle: Klucel (hydroxypropylcellulose) (HPC)).
Take `CC(C)(C)NCCCC(=O)O`: the T/C by setting is: under setting [9], 110 % of control; under setting [10], 100 % of control; under setting [11], 92 % of control.
Regarding `CCCCCCCCCCCCCCCCCCn1cnc2c(N)ncnc21`, the T/C (dose: 12.5 mg/kg/injection, schedule: Q01DX005 (ip), vehicle: other) is 105 % of control; the T/C (dose: 25.0 mg/kg/injection, schedule: Q01DX005 (ip), vehicle: other) was 97 % of control; the T/C (dose: 50.0 mg/kg/injection, schedule: Q01DX005 (ip), vehicle: other) was 102 % of control; the T/C (dose: 100.0 mg/kg/injection, schedule: Q01DX005 (ip), vehicle: other) was 103 % of control; the T/C (dose: 200.0 mg/kg/injection, schedule: Q01DX005 (ip), vehicle: other) is 108 % of control.
For the compound `O=C(O)C(O)C(O)C(O)C(O)C(O)CO.[Cu+2]` (stereo unspecified), where the note is “dose: 30.0 mg/kg/injection, schedule: Q01DX001 (ip), vehicle: saline”, the T/C was 91 % of control.
`CCOP(=O)(OCC)O/N=C(/C#N)c1ccccc1`: the T/C (dose: 75.0 mg/kg/injection, schedule: Q01DX001 (ip), vehicle: saline) was 91 % of control.
On to `NNC(=O)CCN1CC1`, for which the T/C under setting [3] is 109 % of control, the T/C under setting [4] is 107 % of control and the T/C under setting [12] is 115 % of control.
Take `Cc1cc(C)c(C(C)C)cc1C(C)C`: the T/C is 100 % of control under setting [13]; 100 % of control under setting [14]; 90 % of control (dose: 400.0 mg/kg/injection, schedule: Q04DX003 (ip), vehicle: saline).
For the compound `CCCCOC(=O)c1ccc(OC(=O)NC)cc1`, the T/C by setting is: under setting [15], 107 % of control; under setting [16], 101 % of control; (dose: 400.0 mg/kg/injection, schedule: Q01DX009 (ip), vehicle: saline with Tween-80) 112 % of control.
On to `O=C(NC(c1ccccc1)C(Cl)(Cl)Cl)c1ccccc1` (stereo unspecified), for which the T/C runs as follows: under setting [1], 97 % of control; under setting [2], 97 % of control; under setting [17], 97 % of control.
With `CNC(=S)N/N=C/CSC/C=N/NC(=S)NC`, the T/C runs as follows: (dose: 0.2 mg/kg/injection, schedule: Q03HX024 (ip), vehicle: saline with Tween-80) 100 % of control; (dose: 0.39 mg/kg/injection, schedule: Q03HX024 (ip), vehicle: saline with Tween-80) 97 % of control; (dose: 0.78 mg/kg/injection, schedule: Q03HX024 (ip), vehicle: saline with Tween-80) 93 % of control; (dose: 1.56 mg/kg/injection, schedule: Q03HX024 (ip), vehicle: saline with Tween-80) 108 % of control; (dose: 3.13 mg/kg/injection, schedule: Q03HX024 (ip), vehicle: saline with Tween-80) 100 % of control.
With `O=C(O)CSC(SCC(=O)O)(c1ccccc1)c1ccccc1`, the T/C is, setting by setting: under setting [18], 88 % of control; under setting [19], 104 % of control; under setting [20], 102 % of control.
As for `COC(=O)C1C2C=CC(C2=C(c2ccccc2)c2ccccc2)C1C(=O)OC` (stereo unspecified), the T/C runs as follows: (dose: 100.0 mg/kg/injection, schedule: Q01DX001 (ip), vehicle: Klucel (hydroxypropylcellulose) (HPC)) 98 % of control; under setting [2], 96 % of control; under setting [3], 107 % of control; (dose: 200.0 mg/kg/injection, schedule: Q01DX001 (ip), vehicle: Klucel (hydroxypropylcellulose) (HPC)) 97 % of control; under setting [17], 102 % of control; under setting [4], 100 % of control. In addition, the T/C by setting is: (dose: 400.0 mg/kg/injection, schedule: Q01DX001 (ip), vehicle: Klucel (hydroxypropylcellulose) (HPC)) 92 % of control; under setting [21], 96 % of control; under setting [12], 100 % of control.
With `Cc1[nH]nc(-c2cccnc2)c1N=NN1CCC(C(N)=O)CC1`, the T/C (dose: 75.0 mg/kg/injection, schedule: Q01DX001 (ip), vehicle: other) is 103 % of control.
As to `Cc1nc2c([N+](=O)[O-])cccn2n1`, under “dose: 100.0 mg/kg/injection, schedule: Q01DX001 (ip), vehicle: acetone”, the T/C is 98 % of control.
Take `COB(C1CCCCC1)C1CCCCC1`: the T/C under setting [3] was 91 % of control, the T/C under setting [4] was 98 % of control and the T/C under setting [12] was 100 % of control.
Take `c1ccc2c(c1)ccc1ccccc12`: the T/C is 100 % of control under setting [9], 92 % of control under setting [10] and 92 % of control under setting [11].
Turning to `Cc1ccc(S(=O)(=O)Nc2cccc3cnccc23)cc1`, the T/C reads like this: under setting [5], 96 % of control; under setting [6], 105 % of control; under setting [7], 102 % of control; under setting [8], 105 % of control.
`NC(CCSCc1ccc(N(CCCl)CCCl)cc1)C(=O)O` (stereo unspecified): the T/C (dose: 3.0 mg/kg/injection, schedule: Q01DX Z (ip), vehicle: saline) is 123 % of control; the T/C (dose: 8.0 mg/kg/injection, schedule: Q01DX Z (ip), vehicle: saline) is 113 % of control; the T/C (dose: 12.0 mg/kg/injection, schedule: Q01DX Z (ip), vehicle: saline) is 113 % of control; the T/C (dose: 36.0 mg/kg/injection, schedule: Q01DX Z (ip), vehicle: saline) was 114 % of control; the T/C (dose: 54.0 mg/kg/injection, schedule: Q01DX Z (ip), vehicle: saline) was 103 % of control and 90 % of control; the T/C (dose: 81.0 mg/kg/injection, schedule: Q01DX Z (ip), vehicle: saline) is 95 % of control. In addition, the T/C is 169 % of control under setting [6], 182 % of control under setting [7] and 113 % of control under setting [8].
For the compound `OC12CCCCC1C[n+]1ccccc1C2` (stereo unspecified), the T/C (dose: 100.0 mg/kg/injection, schedule: Q01DX001 (ip), vehicle: saline) was 101 % of control.
`C1C2CC3CC1CC(C2)C31CO1` (stereo unspecified): the T/C is 90 % of control under setting [18], 90 % of control under setting [19] and 105 % of control under setting [20].
As to `Cc1ccc(Cl)cc1NS(=O)(=O)c1ccccc1[N+](=O)[O-]`, the T/C was 93 % of control under setting [2], 93 % of control under setting [17] and 96 % of control under setting [21].
For the compound `COc1ncnc2c1ncn2C1OC(CF)C(O)C1O` (stereo unspecified), the T/C (dose: 100.0 mg/kg/injection, schedule: Q01DX005 (ip), vehicle: saline) is 101 % of control and the T/C (dose: 200.0 mg/kg/injection, schedule: Q01DX005 (ip), vehicle: saline) was 103 % of control.
Consider `O=c1ccccn1Cc1ccccc1`, for which the T/C under setting [3] is 106 % of control, the T/C under setting [4] is 117 % of control and the T/C under setting [12] is 98 % of control.
`CCCC(CN)(CCN1CCOCC1)c1cccc2ccccc12` (stereo unspecified): the T/C is, setting by setting: under setting [13], 98 % of control; under setting [14], 95 % of control.
Regarding `c1ccc2[nH]c(SCCSc3nc4ccccc4[nH]3)nc2c1`, the T/C by setting is: under setting [18], 111 % of control; under setting [19], 107 % of control; under setting [20], 92 % of control.
With `Oc1ccc2nocc2c1N=Nc1ccccc1`, the T/C was 98 % of control (dose: 50.0 mg/kg/injection, schedule: Q01DX009 (ip), vehicle: saline with Tween-80); 98 % of control under setting [15]; 95 % of control under setting [16].
